Source: a melting point compilation (Tetko et al.; mined from patent text by program, amines drawn as free bases though some values may be those of a salt)

| SMILES | melting point |
| --- | --- |
| CCOC(=O)c1cc(C=O)[nH]n1 | 133 to 134 °C |
| COc1ccc(C2CSc3ccccc3NC2=O)cc1OC (centres undefined) | 174 °C |
| COc1ccc2nc3cc(OC)c(=O)c(Br)c-3sc2c1 | 260 to 261 °C |
| O=C(O)c1ncsc1-c1cc(F)cc(F)c1 | 200 °C |
| O=c1c(C(O)c2ccc(Cl)cc2)c(Cl)nc2n1CCS2 (centres undefined) | 175 to 177 °C |
| C=CCOc1cc([N+](=O)[O-])ccc1Cl | 58 to 59.5 °C |
| Cc1nc2cccc(O)c2o1 | 152 to 154 °C |
| Nc1ncnc2c1ncn2OCCCOCP(=O)(O)O | 246 to 249 °C |
| CNC1=NN(c2ccc(Cl)cc2)C(C)C1 (centres undefined) | 102 to 103 °C |
| O=c1[nH]c2sc3cc(Br)c(F)cc3c2[nH]c1=O | > 300 °C |
| OC(CCCC(O)c1ccccc1)c1ccccc1 (centres undefined) | 64 to 67 °C |
| Cc1cccc2c1C=Cc1ccccc1C2(C)O (centres undefined) | 107 to 109 °C |
| O=C1[C@H]2CCC[C@H]2Nc2cc([N+](=O)[O-])ccc2N1Cc1ccccc1 (relative stereo) | 174 to 176 °C |
| O=C(O)COc1c(-c2cccc(Cl)c2)cc(C(=O)NCCCCCCCCc2ccccc2)cc1-c1cccc(Cl)c1 | 165 to 167 °C |
| CC(=O)N1N=C(c2ccc([N+](=O)[O-])cc2)c2cc(Br)ccc2CC1C (centres undefined) | 228 to 230 °C |
| CCC1(CC)c2cc(-c3ccc(N(c4ccccc4)c4ccccc4)cc3)ccc2-c2ccc(-c3nc4ccccc4s3)cc21 | 206 to 208 °C |
| CC1=Nc2ccccc2C(=O)C1 | 198 to 200 °C |
| O=C1CC(c2cccc(-n3ccnc3)c2)=Nc2cc(OCCO)c(C#Cc3ccccc3)cc2N1 | 224 to 227 °C |
| CC(=O)c1cc(I)cc(S(N)(=O)=O)c1 | 188 to 189 °C |
| Clc1ccc(OCc2ccccc2)c(OCc2ccccc2)c1Cl | 74 to 75.5 °C |
| CC(C#CC1CCC(Oc2ccc(F)cc2)C1)N(O)C(N)=O (centres undefined) | 95.6 to 96.7 °C |
| CCOC(=O)/C(=N\OC(C)(C)C)c1csc(N)n1 | 111 to 112 °C |
| COc1ccc(N2CCN(c3c(C)c(C)c4c(c3C)CC(C)(CN3CCC(=O)CC3)O4)CC2)cc1 (centres undefined) | 123 to 127 °C |

| SMILES | melting point |
| --- | --- |
| ClCCCOc1cccc2cccnc12 | 69 to 71 °C |
| CCCC1CCC2c3ccc(OCC)c(F)c3OC2C1 (centres undefined) | 128 °C |
| [O-][N+]1=C(c2ccccc2F)c2cc(Cl)ccc2-n2cnc(N3CCCC3)c2C1 | 190 to 192 °C |
| CCC1COC(NC(=O)c2ccc(Cl)c(Cl)c2)C2CCCCN12 (centres undefined) | 214 °C |
| Cn1nnc2sc(N)cc2c1=O | 190 to 194 °C |
| CCc1cc2[nH]c(=O)ccc2c(CC)n1 | 168 to 169 °C |
| CC1(C)CCc2cc(O)c(C=O)cc21 | 40 to 40.5 °C |
| Cc1cc(Oc2ncc(Cl)cc2Cl)cc(C)c1N=C=NC(C)(C)C | 69 to 71 °C |
| CC(C#CCCCc1ccccc1)N(O)C(N)=O (centres undefined) | 78 to 81 °C |
| CCCCCCCCCCCCCCCCCCCCCCOS(=O)(=O)c1ccc(Cl)cc1 | 74 to 75 °C |
| CCOC(=O)c1cn(-c2nc(N)c(F)cc2C)c2c(Cl)c(F)c(F)cc2c1=O | 198 to 202 °C |
| Cc1cc2ncccc2[nH]1 | 193 to 195 °C |
| C[C@@H]1CNC[C@H](C)N1Cc1ccc(COc2cccc3c2CN(C2CCC(=O)NC2=O)C3=O)cc1 (some centres undefined) | 253 to 255 °C |
| N#CCCCc1ccccc1CC1C(=O)CCCC1=O | 143 °C |
| O=Cc1cccc(-c2cc3nccnc3[nH]2)c1 | 268 to 270 °C |
| COCCOc1cc2c(Nc3ccc(Sc4nccn4C)c(Cl)c3)c(C#N)cnc2cc1OCCCN(C)C | 194 to 203 °C |
| Nc1ccc(-n2ccc(=O)cc2)cc1N | 257 to 260 °C |
| O=C1NC(=O)c2ccc(Br)cc2/C1=C/N1CCN(CCN2CCOCC2)CC1 | 156 °C |
| CC1(C)OC(=S)Nc2ccc(-c3cccc(Cl)c3)cc21 | 183 to 184 °C |
| CCc1cc2c(s1)N(C)C(=O)C(OC(=O)Nc1cccc(C)c1)N=C2c1ccccc1Cl (centres undefined) | 181 to 182 °C |
| Oc1ccc(C2CCOC2(c2ccccc2)c2ccc(O)cc2)cc1 (centres undefined) | 194 to 196 °C |
| NNN=CNCCC(=O)O | 177 to 179 °C |
| CN(C)c1ccc(/C=C/c2c(F)cccc2F)c(N)c1 | 97 to 98 °C |

Other lines, results leading:

| melting point | SMILES |
| --- | --- |
| 59 to 60 °C | CC(C)CN(CC(C)C)c1ccc(C(=O)c2ccccc2)cc1N |
| 97 °C | C=CCNc1ccc([N+](=O)[O-])cc1C(=O)c1ccccc1 |
| 212 to 213 °C | CC(Cl)(Cl)C(NC(=O)c1cccnc1)NC(=NC#N)Nc1ccc(Cl)nc1 (centres undefined) |
| 182 °C | COc1ccc(Cl)c(Oc2c(Cl)nc(C)nc2NS(=O)(=O)c2ccc(C(C)(C)C)cc2)c1 |
| 118 °C | CC(C)c1cccc(C(C)C)c1NC(=O)Nc1ccccc1C(=O)NC1CCN(C(c2ccccc2)c2ccccc2)CC1 |
| 110 to 113 °C | CSc1nccn1NCc1cc(C(C)(C)C)c(O)c(C(C)(C)C)c1 |
| 82 to 86 °C | CC(C)(C)c1cc(CCc2nsc(=O)o2)cc(C(C)(C)C)c1O |
| 243 to 244 °C | CCCNc1ccc2nc(NC(=O)c3ccc(C(C)(C)C)cc3)cn2n1 |
| 161 to 162 °C | COc1nc2ccc(Br)cc2cc1C(c1ccccc1)n1ccnc1 (centres undefined) |
| 182 to 183 °C | COCCNC(=O)c1ccc(C)c(-n2c(C)cc(OCc3ccccc3CNC(=O)Nc3cc(C(C)(C)C)nn3-c3ccc(Cl)c(O)c3)c(Cl)c2=O)c1 |
| 48 to 50 °C | CCOC(=O)CCc1cccc(C(=O)c2cccc(C(=O)OCC)c2)c1C=CCCCCO |
| 255 to 257 °C | Oc1cccc(-c2ccc3nnn(Cc4ccc5ncccc5c4)c3n2)c1 |
| 77 to 79 °C | CC(C)(C)c1ccc(CCOc2ncnc3ncccc23)cc1 |
| 159 to 161 °C | Clc1ccc(Sc2cc(NCCN3CCOCC3)nc(-c3ccc(Cl)cc3)n2)cc1 |
| 243 to 245 °C | CC(C)(C)OC(=O)C(CCC(N)=O)N1Cc2c(OCc3ccc(CN4C5CCC4COC5)cc3)cccc2C1=O (centres undefined) |
| 148 to 149 °C | COc1ccc2nc(-c3ccc(Cl)cc3)cn2c1 |
| 122 to 124 °C | CCCCc1oc2ccccc2c1C(=O)Nc1ccc2cc(OCC#N)ccc2c1 |
| 67 °C | CC(C)(C)C(=O)C(CSc1ccc(Cl)cc1)n1cncn1 (centres undefined) |
| 98 to 106 °C | CN(C)CCOc1ccc(-c2cccc(N)n2)c2ccccc12 |
| 162 to 163 °C | CCc1ccc(C2COc3c(C)c(C)c(NC(=O)CC(C)(C)C)c(C)c32)cc1 (centres undefined) |
| 110 to 113 °C | CCOC(=O)C(C)(C)Oc1ccc(C(=O)Cc2ccccc2)cc1 |
| 61 to 62 °C | CCOC(=O)c1c(-c2ccc(F)cc2)c2ccccc2n1C |
| 112 to 113 °C | COc1ccc(Sc2ccnc(Nc3ccc(OCCN(C)C)cc3)n2)cc1 |
| 159 to 161 °C | COc1ccc(/C(=C\C=C\C(=O)O)c2ccccc2OC)cc1 |
| 183 to 184 °C | Fc1ccc(Sc2c[nH]c3ncccc23)cc1 |
| 63 to 65 °C | CCN(CC)CCOc1ccc2c(c1)cc(OC)c1cc(OCCN(CC)CC)ccc12 |
| 118 to 122 °C | O=C(Nc1ccc(F)cc1)NC1CCN(C(=O)c2cccnc2)CC1 |
| 80.5 to 82 °C | CCCCC1(CC(=O)N(CC)CC)C(=O)N(c2ccccc2)N(c2ccccc2)C1=O |
